Source: publication PMC6255327, “Design of Antimicrobially Active Small Amphiphilic Peptide Dendrimers” (Molecules, 2009)
≈ marks a conversion by molar mass, not a printed value. Counter-ions that a name gives are not always drawn. Like-named read-outs stand apart in the source and are kept apart here.

Assays:
S. aureus ATCC 25923 = test: microbe, parasite or virus in culture; type: cell-based, Staphylococcus aureus; conditions: read-out: Minimal inhibitory concentration (MIC)
Protocol: (§1) Bacteria. Staphylococcus aureus ATCC 25923, Pseudomonas aeruginosa ATCC 27853, Escherichia coli ATCC 25922 and Staphylococcus aureus ATCC 43300 were cultivated on tryptone - soy agar (TSA; Oxoid). Klebsiella pneumoniaeATCC 13882, Bordetella bronchiseptica ATCC 4617, Acinetobacter baumannii ATCC 19606 were cultivated onto nutrient agar (Difco). Escherichia coli ATCC BAA-198 was cultivated on TSA with ceftazidime (10 µg/mL or 15.7 μM; Sigma). All strains were incubated during 24 hrs at 37 °C.
(§2) Medium. Mueller – Hinton Broth (Oxoid) was supplemented with cations: 12.5 mg Mg ^++/L and25 mg Ca^++/L. The pH of the medium after sterilization is between 7.2 and 7.4 [cation–adjusted Mueller – Hinton Broth” (CAMHB)].
(§3) Reference method. Broth microdilution susceptibility test was performed as described in […] reference method M7-A7 (2). A series of the twofold dendrimers dilutions in DMSO and twofold polymyxin B and penicillin G dilutions in CAMHB were diluted […] with CAMHB. Aliquots (95 µL) were dispensed into microdilution sterile plates (Mar-Four). Then, bacteria inoculum (5 µL) containing 5 × 10^4 CFU/mL were added. The final concentration of dendrimers ranged from 128 to 2 µg/mL [or 105 to 1.6 μM for an average molecular mass for 7 series (1213) and 61 to 0.9 μM for an average molecular mass for 10 series(2,103)], polymyxin B and penicillin G from 8 – 0.15 µg /mL (or 5.8 to 0.1 μM and 21.5 to 0.4 μM, respectively for polymyxin B and penicillin G), all in twofold dilution steps. The plates were incubated at 35 °C and read after 18 or 24 hours depending on bacterial strain. MICs (Minimal Inhibitory Concentration) was defined as the lowest drug concentration that reduced growth by 100%.

E.coli ATCC 25922 = type: cell-based, Escherichia coli
Protocol: as §1, §2, §3

A. baumani ATCC 19606 = type: cell-based, Acinetobacter baumannii; conditions: ATCC 19606, 24 h
Protocol: as §1, §2, §3

[1] = system: C. parapsilosis ATCC 22019; type: cell-based, Candida parapsilosis; conditions: ATCC 22019, 48 h, pH 7
Protocol: (§4) Yeasts: Candida albicans ATCC 90028, Candida parapsilosis ATCC 22019 and Candida krusei ATCC 6258 were cultivated onto Sabouraud dextrose agar (Difco) during 24 hrs at 35 °C.
(§5) Medium: RPMI – 1640 (Sigma) supplemented with 0.2% (wt/vol) glucose, 0.3 g/L L-glutamine, 0.0053 g/L phenol red, buffered with morpholinopropanesulfonic acid (MOPS; Sigma) at a final concentration of 0.165 M and adjusted to pH 7.0 was prepared.
(§6) Reference Method: The broth microdilution susceptibility test was performed as described in Clinical and Laboratory Standards Institute (CLSI) reference method M27 – A2 (1). A series of the twofold dendrimers and amphotericin B dilutions in DMSO were diluted 1:49 with RPMI.

[2] = system: B. bronchiseptica ATCC 4617; type: cell-based, Bordetella bronchiseptica; conditions: ATCC 4617, 24 h
Protocol: as §1, §2, §3

E. coli ATCC BAA-198 = type: cell-based, Escherichia coli; conditions: ATCC BAA-198, 24 h
Protocol: as §1, §2, §3

S. aureus ATCC 43300 = type: cell-based, Staphylococcus aureus; conditions: ATCC 43300, 24 h
Protocol: as §1, §2, §3

K. pneumoniae ATCC 13882 = type: cell-based, Klebsiella pneumoniae; conditions: ATCC 13882, 24 h
Protocol: as §1, §2, §3

C. albicans ATCC 90028 = type: cell-based, Candida albicans; conditions: ATCC 90028, 48 h, pH 7
Protocol: as §4, §5, §6

C. krusei ATCC 6258 = test: microbe, parasite or virus in culture; type: cell-based, Candida krusei; conditions: read-out: Minimal inhibitory concentration (MIC)
Protocol: as §4, §5, §6

P. aeruginosa ATCC 27853 = type: cell-based, Pseudomonas aeruginosa; conditions: ATCC 27853, 24 h
Protocol: as §1, §2, §3

[3] = S. aureus ATCC 25923, broth microdilution CLSI M7-A7, CAMHB pH 7.2-7.4, 35 °C, read after 18 or 24 h, MIC = lowest concentration that reduced growth by 100%
[4] = E. coli ATCC 25922, broth microdilution CLSI M7-A7, CAMHB, 35 °C, read after 18 or 24 h, 100% growth reduction

Row | SMILES | MIC (S. aureus ATCC 25923; [3]) [µM] | Minimal inhibitory concentration (MIC) (E.coli ATCC 25922; [4]) [µM] | Minimal inhibitory concentration (MIC) (A. baumani ATCC 19606) [µM] | Minimal inhibitory concentration (MIC) [1] [µM] | Minimal inhibitory concentration (MIC) [2] [µM] | MIC (S. aureus ATCC 25923; ATCC 25923, 24 h, pH 7.2) [µM] | Minimal inhibitory concentration (MIC) (E.coli ATCC 25922; ATCC 25922, 24 h) [µM] | Minimal inhibitory concentration (MIC) (E. coli ATCC BAA-198) [µM] | Minimal inhibitory concentration (MIC) (S. aureus ATCC 43300) [µM] | Minimal inhibitory concentration (MIC) (K. pneumoniae ATCC 13882) [µM] | Minimal inhibitory concentration (MIC) (C. albicans ATCC 90028) [µM] | MIC (C. krusei ATCC 6258; ATCC 6258, 48 h, pH 7) [µM] | Minimal inhibitory concentration (MIC) (P. aeruginosa ATCC 27853) [µM] | MIC (S. aureus ATCC 25923; Staphylococcus aureus, ATCC25923, S. aureus ATCC 25923, broth microdilution CLSI M7-A7, CAMHB pH 7.2-7.4, 35 °C, read after 18 or 24 h, MIC = lowest concentration that reduced growth by 100%) [µM] | MIC (C. krusei ATCC 6258; Pichia kudriavzevii, ATCC6258, C. krusei ATCC 6258, broth microdilution CLSI M27-A2, RPMI-1640 with MOPS pH 7.0, 35 °C, read after 24 and 48 h, 100% growth reduction) [µM]
1 | NCCCN(CCCN)CCC[C@@H](CO)N(CCCN)CCCN [Compound 5c, N,N’,N,N’-tetrakis(3-aminopropyl)-L-α,δ-diaminopentanol] | 113 (≈ 39.2 µg/mL) | >226 | – | – | – | – | – | – | – | – | – | – | – | – | –
2 | NCCCN(CCCN)CCCC[C@@H](CO)N(CCCN)CCCN [Compound 5d, N,N’,N,N’-tetrakis(3-aminopropyl)-L-α,ε-diaminohexanol] | 221 (≈ 79.7 µg/mL) | >221 | – | – | – | – | – | – | – | – | – | – | – | – | –
3 | NCCCC[C@H](NC(=O)OCc1ccccc1Cl)C(=O)NCCCN[C@@H](CN(CCCNC(=O)[C@H](CCCCN)NC(=O)OCc1ccccc1Cl)CCCNC(=O)[C@H](CCCCN)NC(=O)OCc1ccccc1Cl)C(=O)NCc1ccccc1 [Compound 7e, N,N,N’-tris[(N^α-2-chlorobenzyloxycarbonyl)-L-lysil-3-aminopropyl]-L-diaminoalanine benzylamide pentahydrochloride] | – | – | >89 | 88 | 11 | 2.8 | 11.8 | >88 | 11.8 | >89 | >88 | 44 | 24.3 | – | –
4 | NCCCC[C@H](NC(=O)OCc1ccccc1Cl)C(=O)NCCCN[C@@H](CCN(CCCNC(=O)[C@H](CCCCN)NC(=O)OCc1ccccc1Cl)CCCNC(=O)[C@H](CCCCN)NC(=O)OCc1ccccc1Cl)C(=O)NCc1ccccc1 [Compound 7f, N,N,N’-tris[(N^α-2-chlorobenzyloxycarbonyl)-L-lysil-3-aminopropyl]-L-diaminobutyro benzylamide pentahydrochloride] | – | – | >88 | 89 | 11 | 11.7 | 48 | >89 | 10.3 | >88 | >89 | 44 | 48 | – | –
5 | NCCCC[C@H](NC(=O)OCc1ccccc1Cl)C(=O)NCCCN[C@@H](CCCCN(CCCNC(=O)[C@H](CCCCN)NC(=O)OCc1ccccc1Cl)CCCNC(=O)[C@H](CCCCN)NC(=O)OCc1ccccc1Cl)C(=O)NCc1ccccc1 [Compound 7h, N,N,N’-tris[(N^α-2-chlorobenzyloxycarbonyl)-L-lysil-3-aminopropyl]-L-lysine benzylamide penta-hydrochloride] | – | – | >86 | 86 | 5.4 | 21.6 | 86 | 43 | 21.6 | >86 | >86 | 43 | 86 | – | –
6 | NCCCC[C@H](NC(=O)OCc1ccccc1Cl)C(=O)N[C@@H](Cc1ccccc1)C(=O)NCCCN(CCCNC(=O)[C@H](Cc1ccccc1)NC(=O)[C@H](CCCCN)NC(=O)OCc1ccccc1Cl)C[C@@H](CO)N(CCCNC(=O)[C@H](Cc1ccccc1)NC(=O)[C@H](CCCCN)NC(=O)OCc1ccccc1Cl)CCCNC(=O)[C@H](Cc1ccccc1)NC(=O)[C@H](CCCCN)NC(=O)OCc1ccccc1Cl [Compound 10a, N,N',N,N’-tetrakis[(N^α-2-chlorobenzyloxycarbonyl)-L-lysil-L-phenylalanyl-3-aminopropyl]-L-α,δ-diaminopropanol hexahydrochloride] | – | – | 13.8 | 6.8 | 3.4 | 1.7 | 7.3 | 6.9 | 3.4 | >55 | 6.8 | 6.8 | 30.2 | – | –
7 | NCCCC[C@H](NC(=O)OCc1ccccc1Cl)C(=O)N[C@@H](Cc1ccccc1)C(=O)NCCCN(CCCNC(=O)[C@H](Cc1ccccc1)NC(=O)[C@H](CCCCN)NC(=O)OCc1ccccc1Cl)CC[C@@H](CO)N(CCCNC(=O)[C@H](Cc1ccccc1)NC(=O)[C@H](CCCCN)NC(=O)OCc1ccccc1Cl)CCCNC(=O)[C@H](Cc1ccccc1)NC(=O)[C@H](CCCCN)NC(=O)OCc1ccccc1Cl [Compound 10b, N,N',N,N’-tetrakis[(N^α-2-chlorobenzyloxycarbonyl)-L-lysil-L-phenylalanyl-3-aminopropyl]-L-α,δ-diaminobutanol hexahydrochloride] | – | – | 13.8 | 6.9 | 3.4 | 1.3 | 7.3 | 6.9 | 7.3 | >55 | 6.9 | 6.9 | 47 | – | –
8 | CC1(C)S[C@@H]2[C@H](NC(=O)Cc3ccccc3)C(=O)N2[C@H]1C(=O)O [Penicillin G, reference compound] | – | – | – | – | – | – | – | – | – | – | – | – | – | 6.6 (≈ 2.21 µg/mL) | –
9 | C[C@@H]1[C@H](O)[C@@H](C)/C=C/C=C/C=C/C=C/C=C/C=C/C=C/[C@H](O[C@@H]2O[C@H](C)[C@@H](O)[C@H](N)[C@@H]2O)C[C@@H]2O[C@](O)(C[C@@H](O)C[C@@H](O)[C@H](O)CC[C@@H](O)C[C@@H](O)CC(=O)O[C@H]1C)C[C@H](O)[C@H]2C(=O)O [amphotericin B, reference compound] | – | – | – | – | – | – | – | – | – | – | – | – | – | – | 1.1 (≈ 1.02 µg/mL)
